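Exposure lasted 48 hours, with cells grown in 96-well plates and compounds tested at five concentrations. GI50: concentration for 50% inhibition of growth. TGI: total growth inhibition.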 Some results are limits rather than exact numbers.

Results on 11 compounds are retold here after PubChem BioAssay (NCI).

Among the test systems are OVCAR-4 ovarian; MALME-3M melanoma; TK-10 renal; RXF 393 renal; OVCAR-3 ovarian; HCT-116 colon; SNB-19 CNS; PC-3 prostate; CCRF-CEM leukemia; SF-539 CNS.
Common to all, as to assay: inhibition of tumour cell growth, NCI panel, 48 h

For the compound `CN(C)CCOC(=O)Nc1nc2ccc(Sc3ccccc3)cc2[nH]1`, the GI50 in the assay on OVCAR-4 ovarian was 6.3 µM; in the assay with MALME-3M melanoma it was 4.93 µM; in the assay with TK-10 renal, 11 µM; in the assay on RXF 393 renal, 1.85 µM; in the assay on OVCAR-3 ovarian, 2.66 µM; with HCT-116 colon, 3.16 µM. Also, the GI50 is 4.87 µM in the assay on SNB-19 CNS, 3 µM in the assay with PC-3 prostate, 2.67 µM in the assay with CCRF-CEM leukemia and 2.27 µM in the assay on SF-539 CNS. Besides, the TGI in the assay on OVCAR-4 ovarian is > 100 µM; in the assay with MALME-3M melanoma, 19.5 µM; in the assay on TK-10 renal it was 25.5 µM; with RXF 393 renal, 6.6 µM; in the assay with OVCAR-3 ovarian it was 9.06 µM; in the assay on HCT-116 colon, 12.6 µM. Also, the TGI was found to be 19.5 µM in the assay with SNB-19 CNS, 22.7 µM with PC-3 prostate, 16.3 µM in the assay on CCRF-CEM leukemia and 5.85 µM in the assay with SF-539 CNS.

`COc1cc(/C=C/C(=O)c2c(C)nc3ccccc3c2C)ccc1OCCCN1CCN(C(=O)c2ccco2)CC1`: the GI50 was 8.85 µM in the assay with OVCAR-4 ovarian; 3.43 µM with MALME-3M melanoma; 15.3 µM in the assay on TK-10 renal; 2.8 µM in the assay on RXF 393 renal; 9.46 µM in the assay with OVCAR-3 ovarian; 3.5 µM with HCT-116 colon. For the same compound, the GI50 was 11.9 µM in the assay with SNB-19 CNS, 6.44 µM in the assay on PC-3 prostate, 3 µM with CCRF-CEM leukemia and 14.4 µM with SF-539 CNS. The TGI was > 100 µM in the assay on OVCAR-4 ovarian; 18.2 µM with MALME-3M melanoma; 30 µM in the assay on TK-10 renal; 10.2 µM in the assay with RXF 393 renal; 21.3 µM in the assay with OVCAR-3 ovarian; 15.7 µM in the assay on HCT-116 colon. The TGI in the assay on SNB-19 CNS came out at 31.1 µM; in the assay on PC-3 prostate it was 26.7 µM; with CCRF-CEM leukemia, 17.9 µM; with SF-539 CNS, 27.5 µM.

As to `N#CC1C(=O)NC(c2ccccc2[N+](=O)[O-])c2sc3c(F)cccc3c21` (stereo not drawn), the GI50 in the assay with OVCAR-4 ovarian was 1.5 µM; in the assay on MALME-3M melanoma, 19.5 µM; with TK-10 renal, 11.5 µM; in the assay with RXF 393 renal, 13.4 µM; with OVCAR-3 ovarian, 0.318 µM; with HCT-116 colon, 0.138 µM. Moreover, the GI50 with SNB-19 CNS is 22.1 µM; in the assay on PC-3 prostate, 12.4 µM; in the assay on CCRF-CEM leukemia, 21.6 µM; in the assay on SF-539 CNS, 22 µM. Besides, the TGI came out at 44.7 µM in the assay with OVCAR-4 ovarian; 63.7 µM in the assay with MALME-3M melanoma; 60.6 µM in the assay on TK-10 renal; 56.9 µM with RXF 393 renal; 12.7 µM in the assay with OVCAR-3 ovarian; 11.9 µM in the assay on HCT-116 colon. Also, the TGI with SNB-19 CNS is > 100 µM; with PC-3 prostate, 73 µM; with CCRF-CEM leukemia, > 87.4 µM; with SF-539 CNS, 72.8 µM.

Regarding `COCc1c(-c2ccc(NC(=O)Nc3cc(C(F)(F)F)ccc3F)c(F)c2)c2c(N)ncnn2c1CN1CCOCC1`, the GI50 in the assay on OVCAR-4 ovarian is 1.97 µM; with MALME-3M melanoma it was 2.72 µM; in the assay on TK-10 renal it was 1.29 µM; with RXF 393 renal it was 0.236 µM; in the assay on OVCAR-3 ovarian it was 3.37 µM; in the assay with HCT-116 colon, 1.7 µM. Further, the GI50 in the assay on SNB-19 CNS is 2.93 µM; with PC-3 prostate it was 2.88 µM; in the assay with CCRF-CEM leukemia it was 1.95 µM; in the assay on SF-539 CNS it was 0.283 µM. Moreover, the TGI is > 10 µM in the assay with OVCAR-4 ovarian; > 10 µM with MALME-3M melanoma; 7.53 µM in the assay with TK-10 renal; 1.43 µM in the assay with RXF 393 renal; > 10 µM in the assay on OVCAR-3 ovarian; > 10 µM with HCT-116 colon. The TGI in the assay on SNB-19 CNS is > 10 µM; in the assay on PC-3 prostate, > 10 µM; with CCRF-CEM leukemia it was 7.96 µM; with SF-539 CNS, 2.64 µM.

Consider `Cc1nccc2c3ccc(OCc4cn(-c5ccc(Cl)cc5)nn4)cc3n(CC(C)C)c12`, for which the GI50 in the assay on OVCAR-4 ovarian was 2.24 µM; with MALME-3M melanoma, 4.62 µM; with TK-10 renal, 6.89 µM; in the assay on RXF 393 renal it was 2.85 µM; in the assay with OVCAR-3 ovarian it was 5.15 µM; with HCT-116 colon it was 1.3 µM. The GI50 in the assay with SNB-19 CNS was 4.5 µM; with PC-3 prostate it was 1.52 µM; in the assay with CCRF-CEM leukemia, 2.04 µM; in the assay on SF-539 CNS it was 2.82 µM. In addition, the TGI is 15.1 µM in the assay on OVCAR-4 ovarian; 13 µM in the assay with MALME-3M melanoma; 19.5 µM in the assay with TK-10 renal; 11.8 µM in the assay on RXF 393 renal; > 33.3 µM in the assay on OVCAR-3 ovarian; 5.65 µM in the assay on HCT-116 colon. The TGI is > 33.3 µM in the assay on SNB-19 CNS, > 33.3 µM in the assay with PC-3 prostate, > 33.3 µM with CCRF-CEM leukemia and 10.9 µM in the assay on SF-539 CNS.

As for `O=[N+]([O-])c1ccc(Sc2ccncn2)c([N+](=O)[O-])c1`, the GI50 in the assay with OVCAR-4 ovarian is 2.78 µM; in the assay with MALME-3M melanoma, 1.32 µM; in the assay with TK-10 renal, 3.03 µM; with RXF 393 renal, 3.99 µM; in the assay on OVCAR-3 ovarian it was 1.46 µM; in the assay on HCT-116 colon, 0.726 µM. Besides, the GI50 was 10.1 µM with SNB-19 CNS, 3.98 µM in the assay with PC-3 prostate, 0.504 µM in the assay with CCRF-CEM leukemia and 2.32 µM in the assay with SF-539 CNS. Moreover, the TGI in the assay with OVCAR-4 ovarian is 11.3 µM; in the assay on MALME-3M melanoma it was 3.23 µM; in the assay with TK-10 renal it was 9.88 µM; with RXF 393 renal it was 11.7 µM; in the assay with OVCAR-3 ovarian, 2.82 µM; in the assay with HCT-116 colon, 2 µM. The TGI came to 23.7 µM with SNB-19 CNS, 15.7 µM with PC-3 prostate, 6.13 µM with CCRF-CEM leukemia and 6.75 µM in the assay on SF-539 CNS.

With `Nc1c(F)cc(-c2nc3cc(F)ccc3[se]2)cc1Br`, the GI50 in the assay on OVCAR-4 ovarian was 0.15 µM; in the assay with MALME-3M melanoma it was 25.3 µM; in the assay with TK-10 renal, 0.17 µM; with RXF 393 renal, 2.28 µM; in the assay with OVCAR-3 ovarian it was 0.123 µM; in the assay with HCT-116 colon, 0.025 µM. Moreover, the GI50 with SNB-19 CNS was 27.8 µM; in the assay with PC-3 prostate, 14.5 µM; with CCRF-CEM leukemia, > 100 µM; with SF-539 CNS, 11.4 µM. Besides, the TGI in the assay with OVCAR-4 ovarian was > 100 µM; with MALME-3M melanoma, > 100 µM; in the assay with TK-10 renal, 0.61 µM; with RXF 393 renal, 42.8 µM; in the assay with OVCAR-3 ovarian, > 100 µM; with HCT-116 colon it was 13 µM. The TGI was > 100 µM in the assay on SNB-19 CNS, > 100 µM in the assay with PC-3 prostate, > 100 µM in the assay on CCRF-CEM leukemia and 32.4 µM with SF-539 CNS.

Take `O=C(/C=C/OC(=O)c1cccc(Cl)c1)c1ccc(Cl)cc1`: the GI50 with OVCAR-4 ovarian is > 72.5 µM; with MALME-3M melanoma, 2.32 µM; in the assay on TK-10 renal it was 32.7 µM; in the assay on RXF 393 renal it was > 100 µM; in the assay on OVCAR-3 ovarian, 21.7 µM; in the assay with HCT-116 colon, 31.3 µM. Moreover, the GI50 with SNB-19 CNS is > 56.5 µM; in the assay with PC-3 prostate, 30.7 µM; in the assay with CCRF-CEM leukemia it was 37.5 µM; in the assay on SF-539 CNS it was 23.1 µM. Besides, the TGI in the assay on OVCAR-4 ovarian was > 100 µM; in the assay with MALME-3M melanoma, 39 µM; in the assay with TK-10 renal, > 100 µM; in the assay on RXF 393 renal, > 100 µM; with OVCAR-3 ovarian, > 74 µM; in the assay with HCT-116 colon, > 100 µM. Further, the TGI with SNB-19 CNS is > 100 µM; in the assay on PC-3 prostate, > 95.9 µM; in the assay with CCRF-CEM leukemia, > 100 µM; in the assay on SF-539 CNS it was 55.2 µM.

In the case of `Cn1c2ccccc2c2c(=O)n(CCCC(=O)OC(=NC3CCCCC3)NC3CCCCC3)c3c(-c4ccccc4)nnn3c21`, the GI50 with OVCAR-4 ovarian was 38 µM; in the assay on MALME-3M melanoma, > 100 µM; in the assay with TK-10 renal, > 100 µM; in the assay on RXF 393 renal it was 62.8 µM; with OVCAR-3 ovarian, > 100 µM; in the assay with HCT-116 colon it was 91.8 µM. For the same compound, the GI50 in the assay on SNB-19 CNS was > 100 µM; in the assay on PC-3 prostate it was > 100 µM; in the assay with CCRF-CEM leukemia, > 100 µM; in the assay with SF-539 CNS it was 38.4 µM. The TGI with OVCAR-4 ovarian, with MALME-3M melanoma, in the assay with TK-10 renal, in the assay with RXF 393 renal, with OVCAR-3 ovarian and in the assay with HCT-116 colon was > 100 µM each time. Further, the TGI in the assay with SNB-19 CNS, in the assay on PC-3 prostate, in the assay with CCRF-CEM leukemia and in the assay on SF-539 CNS was > 100 µM throughout.

In the case of `COc1ccc(N(C)c2nc(Cl)nc3cnn(C)c23)cc1`, the GI50 with OVCAR-4 ovarian is 0.0795 µM; in the assay with TK-10 renal, > 68.6 µM; with RXF 393 renal, < 0.01 µM; with OVCAR-3 ovarian, < 0.01 µM; with HCT-116 colon, < 0.01 µM; with SNB-19 CNS it was < 0.0131 µM. In addition, the GI50 in the assay on PC-3 prostate was < 0.01 µM; in the assay with CCRF-CEM leukemia it was < 0.0146 µM; in the assay on SF-539 CNS, < 0.01 µM. In addition, the TGI in the assay on OVCAR-4 ovarian, in the assay on MALME-3M melanoma, in the assay with TK-10 renal, with RXF 393 renal, with OVCAR-3 ovarian and in the assay on HCT-116 colon was > 100 µM in each case. The TGI in the assay on SNB-19 CNS, with PC-3 prostate and in the assay with CCRF-CEM leukemia was > 100 µM in each case.

For `CCCN1CCC(c2ccc(Nc3nc(Nc4cc(F)ccc4C(N)=O)c4cc[nH]c4n3)c(OC)c2)CC1`, the GI50 is 4.1 µM in the assay with OVCAR-4 ovarian; 3.13 µM with MALME-3M melanoma; 1.07 µM in the assay with TK-10 renal; 2.89 µM in the assay with RXF 393 renal; 3.66 µM in the assay with OVCAR-3 ovarian; 0.178 µM in the assay with HCT-116 colon. In addition, the GI50 with SNB-19 CNS was 4.15 µM; in the assay on PC-3 prostate it was 2.69 µM; with CCRF-CEM leukemia it was 1.16 µM; with SF-539 CNS, 2.95 µM. Moreover, the TGI in the assay with OVCAR-4 ovarian worked out at 13.1 µM; in the assay on MALME-3M melanoma, 7.54 µM; with TK-10 renal it was 6.33 µM; with RXF 393 renal, 6.31 µM; in the assay on OVCAR-3 ovarian, 7.25 µM; with HCT-116 colon it was 3.61 µM. The TGI was 9.73 µM with SNB-19 CNS, 9.53 µM with PC-3 prostate, 20.3 µM in the assay on CCRF-CEM leukemia and 6.76 µM in the assay on SF-539 CNS.
